This passage reports IC50 results from patent US20230277534A1 (Plexxikon Inc., priority 2011, published 2023).

Assay [1] relates to COLO205 colon adenocarcinoma cells (B-Raf V600E mutation). Nature of the assay: COLO205 cell growth inhibition (ATPlite). In kind it is cell-based. As to conditions: Homo sapiens, COLO 205, 72 h, 3 days. As for the experimental part:
Compounds are assessed in a variety of cell based assays.
On day 1, cells are counted, then centrifuged in a conical tube for 5 minutes at 1000 rpm.
On day 2, compound at a maximum concentration of 5 mM is serially diluted 1:3 (e.g. 10 μL with 30 μL dimethyl sulfoxide) for a total of 8 point titration with DMSO as a control. A 1 μL aliquot of each dilution point and control is added to 249 μL growth media and 50 μL is added to a well containing cells, providing 10 μM compound at the maximum concentration point. The cells are incubated for 3 days at 37° C. in 5% CO2.
ATPlite is added 25 μL to each well, shake for 2 minutes, and the cells are incubated at room temperature for 10 minutes, then luminescence is read on Safire reader. The measured luminescence correlates directly with cell number, such that the reading as a function of compound concentration is used to determine the IC50 value.
(In ATP-based viability assays light output follows the ATP content of the culture.)

A further assay has as its target B-Raf V600E (Homo sapiens (Human), UniProt P15056, V600E). The assay is described as follows: B-Raf V600E kinase biochemical activity assay (AlphaScreen, biotin-MEK1 substrate). To be noted: 100 μM ATP. The gist of the method: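 B-Raf V600E (0.1 ng) phosphorylated 100 nM biotin-MEK1 with 100 μM ATP (final) in HEPES pH 7.0 with Mg2+/Mn2+ for 45 min at room temperature. Compounds were tested over an 8-point serial dilution. Phospho-MEK1/2 was detected by AlphaScreen after 3 h with beads, and IC50 came from signal versus concentration.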
(In general: Alpha assays give light when donor and acceptor beads are brought close together.)

What is called IC50 is the point on the concentration scale where inhibition reaches its midpoint. A lower IC50 goes with greater potency.

Sequence of B-Raf V600E (P15056 whole entry V600E): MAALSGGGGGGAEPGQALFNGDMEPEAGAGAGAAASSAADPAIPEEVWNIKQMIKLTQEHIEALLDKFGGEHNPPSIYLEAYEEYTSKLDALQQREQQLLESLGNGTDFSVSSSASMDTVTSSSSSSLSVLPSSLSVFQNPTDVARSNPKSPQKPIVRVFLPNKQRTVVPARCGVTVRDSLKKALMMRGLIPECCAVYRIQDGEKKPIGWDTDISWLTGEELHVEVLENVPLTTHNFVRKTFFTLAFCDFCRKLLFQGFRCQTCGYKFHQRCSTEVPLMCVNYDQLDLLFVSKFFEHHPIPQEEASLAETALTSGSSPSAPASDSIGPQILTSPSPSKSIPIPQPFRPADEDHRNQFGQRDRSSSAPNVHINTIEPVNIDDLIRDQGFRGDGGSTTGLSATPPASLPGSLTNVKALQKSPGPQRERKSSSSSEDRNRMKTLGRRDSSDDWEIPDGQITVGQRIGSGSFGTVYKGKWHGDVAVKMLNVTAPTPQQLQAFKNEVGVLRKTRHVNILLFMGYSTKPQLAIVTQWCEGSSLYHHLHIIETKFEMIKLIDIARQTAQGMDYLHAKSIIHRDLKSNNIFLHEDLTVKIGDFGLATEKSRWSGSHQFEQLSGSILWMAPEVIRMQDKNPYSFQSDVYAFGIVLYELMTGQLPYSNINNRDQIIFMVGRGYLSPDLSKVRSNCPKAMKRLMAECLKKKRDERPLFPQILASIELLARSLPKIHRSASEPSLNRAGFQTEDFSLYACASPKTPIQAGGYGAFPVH

As to `Cc1ncc(-c2cnc3[nH]cc(C(=O)c4cccc(NS(=O)(=O)N(C)C)c4F)c3c2)cn1` [Compound P-0097, 3-[3-(dimethylsulfamoylamino)-2-fluoro-benzoyl]-5-(2-methylpyrimidin-5-yl)-1H-pyrrolo[2,3-b]pyridine], the IC50 in assay [1] is below 1 µM; at B-Raf V600E it was below 0.1 µM.
Consider `CN(C)S(=O)(=O)Nc1cccc(C(=O)c2c[nH]c3ncc(-c4cncc(C#N)c4)cc23)c1F` [Compound P-0098, 5-(5-cyano-3-pyridyl)-3-[3-(dimethylsulfamoylamino)-2-fluoro-benzoyl]-1H-pyrrolo[2,3-b]pyridine], for which the IC50 in assay [1] was below 1 µM; against B-Raf V600E, below 0.1 µM.
For the molecule `CN(C)S(=O)(=O)Nc1cccc(C(=O)c2c[nH]c3ncc(-c4ccc(C#N)nc4)cc23)c1F` [Compound P-0099, 5-(6-cyano-3-pyridyl)-3-[3-(dimethylsulfamoylamino)-2-fluoro-benzoyl]-1H-pyrrolo[2,3-b]pyridine], the IC50 in assay [1] was above 1 µM; against B-Raf V600E, below 0.1 µM.
For `CCN(C)S(=O)(=O)Nc1cccc(C(=O)c2c[nH]c3ncc(-c4cnc(C#N)nc4)cc23)c1F` [Compound P-0100, 5-(2-cyanopyrimidin-5-yl)-3-[3-[[ethyl(methyl)sulfamoyl]amino]-2-fluoro-benzoyl]-1H-pyrrolo[2,3-b]pyridine], the IC50 was above 1 µM in assay [1] and below 0.1 µM against B-Raf V600E.
As for `CCN(C)S(=O)(=O)Nc1cccc(C(=O)c2c[nH]c3ncc(-c4cncc(C#N)c4)cc23)c1F` [Compound P-0101, 5-(5-cyano-3-pyridyl)-3-[3-[[ethyl(methyl)sulfamoyl]amino]-2-fluoro-benzoyl]-1H-pyrrolo[2,3-b]pyridine], the results for the IC50 (in assay [1]; against B-Raf V600E) were above 1 µM and below 0.1 µM, respectively.
The corresponding values for `CCN(C)S(=O)(=O)Nc1cccc(C(=O)c2c[nH]c3ncc(-c4ccc(C#N)nc4)cc23)c1F` [Compound P-0102, 5-(6-cyano-3-pyridyl)-3-[3-[[ethyl(methyl)sulfamoyl]amino]-2-fluoro-benzoyl]-1H-pyrrolo[2,3-b]pyridine] are above 1 µM and below 0.1 µM.
As for `CCN(C)S(=O)(=O)Nc1cccc(C(=O)c2c[nH]c3ncc(-c4ccc(C(C)(C)O)cc4)cc23)c1F` [Compound P-0104, 3-[3-[[ethyl(methyl)sulfamoyl]amino]-2-fluoro-benzoyl]-5-[4-(1-hydroxy-1-methyl-ethyl)phenyl]-1H-pyrrolo[2,3-b]pyridine], the IC50 in assay [1] was below 1 µM; on B-Raf V600E it was below 0.1 µM.
The corresponding values for `CN(C)c1ncc(-c2cnc3[nH]cc(C(=O)c4cccc(NS(=O)(=O)N(C)C)c4F)c3c2)cn1` [Compound P-0106, 5-[2-(dimethylamino)pyrimidin-5-yl]-3-[3-(dimethylsulfamoylamino)-2-fluoro-benzoyl]-1H-pyrrolo[2,3-b]pyridine] are below 1 µM and below 0.1 µM.
For the molecule `CN(C)S(=O)(=O)Nc1cccc(C(=O)c2c[nH]c3ncc(-c4cnc(N5CCCC5)nc4)cc23)c1F` [Compound P-0107, 3-[3-(dimethylsulfamoylamino)-2-fluoro-benzoyl]-5-(2-pyrrolidin-1-ylpyrimidin-5-yl)-1H-pyrrolo[2,3-b]pyridine], the results for the IC50 (in assay [1]; against B-Raf V600E) were below 1 µM and below 0.1 µM, respectively.
The like results for `O=C(c1cccc(NS(=O)(=O)N2CCCC2)c1F)c1c[nH]c2ncc(-c3cnc(N4CCCC4)nc3)cc12` [Compound P-0109, N-[2-fluoro-3-[5-(2-pyrrolidin-1-ylpyrimidin-5-yl)-1H-pyrrolo[2,3-b]pyridine-3-carbonyl]phenyl]pyrrolidine-1-sulfonamide] were, in that order, below 1 µM and below 0.1 µM.
Regarding `CN(C)S(=O)(=O)Nc1cccc(C(=O)c2c[nH]c3ncc(I)cc23)c1F` [Compound P-0110, 3-[3-(dimethylsulfamoylamino)-2-fluoro-benzoyl]-5-iodo-1H-pyrrolo[2,3-b]pyridine], the IC50 in assay [1] is below 1 µM; on B-Raf V600E, below 0.1 µM.
With `CCCN(C)S(=O)(=O)Nc1cccc(C(=O)c2c[nH]c3ncc(-c4cnc(C)nc4)cc23)c1F` [Compound P-0111, 3-[2-fluoro-3-[[methyl(propyl)sulfamoyl]amino]benzoyl]-5-(2-methylpyrimidin-5-yl)-1H-pyrrolo[2,3-b]pyridine], the IC50 is below 1 µM in assay [1] and below 0.1 µM at B-Raf V600E.
`Cc1ncc(-c2cnc3[nH]cc(C(=O)c4cccc(NS(=O)(=O)N(C)CC5CC5)c4F)c3c2)cn1` [Compound P-0112, 3-[3-[[cyclopropylmethyl(methyl)sulfamoyl]amino]-2-fluoro-benzoyl]-5-(2-methylpyrimidin-5-yl)-1H-pyrrolo[2,3-b]pyridine]: the IC50 in assay [1] is below 1 µM; against B-Raf V600E, below 0.1 µM.
Consider `CN(C)S(=O)(=O)Nc1cccc(C(=O)c2c[nH]c3ncc(-c4ccc(C5CC5)nc4)cc23)c1F` [Compound P-0113, 5-(6-cyclopropyl-3-pyridyl)-3-[3-(dimethylsulfamoylamino)-2-fluoro-benzoyl]-1H-pyrrolo[2,3-b]pyridine], for which the IC50 is below 1 µM in assay [1] and below 0.1 µM against B-Raf V600E.
The corresponding values for `CCCN(C)S(=O)(=O)Nc1cccc(C(=O)c2c[nH]c3ncc(-c4ccc(C5CC5)nc4)cc23)c1F` [Compound P-0114, 5-(6-cyclopropyl-3-pyridyl)-3-[2-fluoro-3-[[methyl(propyl)sulfamoyl]amino]benzoyl]-1H-pyrrolo[2,3-b]pyridine] are below 1 µM and below 0.1 µM.
The corresponding values for `CN(CC1CC1)S(=O)(=O)Nc1cccc(C(=O)c2c[nH]c3ncc(-c4ccc(C5CC5)nc4)cc23)c1F` [Compound P-0115, 3-[3-[[cyclopropylmethyl(methyl)sulfamoyl]amino]-2-fluoro-benzoyl]-5-(6-cyclopropyl-3-pyridyl)-1H-pyrrolo[2,3-b]pyridine] are below 1 µM and below 0.1 µM.
Turning to `CCCN(C)S(=O)(=O)Nc1ccc(F)c(C(=O)c2c[nH]c3ncc(-c4cnc(OC)nc4)cc23)c1F` [Compound P-0116, 3-[2,6-difluoro-3-[[methyl(propyl)sulfamoyl]amino]benzoyl]-5-(2-methoxypyrimidin-5-yl)-1H-pyrrolo[2,3-b]pyridine], the values for the IC50 (in assay [1]; on B-Raf V600E) were below 1 µM and below 0.1 µM, respectively.
As for `CCCNS(=O)(=O)Nc1cccc(C(=O)c2c[nH]c3ncc(I)cc23)c1F` [Compound P-0117, [2-fluoro-3-(propylsulfamoylamino)phenyl]-(5-iodo-1H-pyrrolo[2,3-b]pyridin-3-yl)methanone], the half-maximal inhibitory concentration (IC50) is above 1 µM in assay [1] and above 0.1 µM on B-Raf V600E.
In the case of `CCC(C)S(=O)(=O)Nc1cccc(C(=O)c2c[nH]c3ncc(-c4cnc(OC)nc4)cc23)c1F` (centres unmarked) [Compound P-0224, N-[2-fluoro-3-[5-(2-methoxypyrimidin-5-yl)-1H-pyrrolo[2,3-b]pyridine-3-carbonyl]phenyl]butane-2-sulfonamide], the results for the IC50 (in assay [1]; against B-Raf V600E) were below 1 µM and below 0.1 µM, respectively.
The corresponding values for `CCC(C)S(=O)(=O)Nc1cccc(C(=O)c2c[nH]c3ncc(-c4cnc(N5CCCC5)nc4)cc23)c1F` (centres unmarked) [Compound P-0225, N-[2-fluoro-3-[5-(2-pyrrolidin-1-ylpyrimidin-5-yl)-1H-pyrrolo[2,3-b]pyridine-3-carbonyl]phenyl]butane-2-sulfonamide] are below 1 µM and below 0.1 µM.
Turning to `CCC(C)S(=O)(=O)Nc1cccc(C(=O)c2c[nH]c3ncc(-c4cnc(NC5CC5)nc4)cc23)c1F` (centres unmarked) [Compound P-0226, N-[3-[5-[2-(cyclopropylamino)pyrimidin-5-yl]-1H-pyrrolo[2,3-b]pyridine-3-carbonyl]-2-fluoro-phenyl]butane-2-sulfonamide], the IC50 is below 1 µM in assay [1] and below 0.1 µM at B-Raf V600E.
As to `CCC(C)S(=O)(=O)Nc1cccc(C(=O)c2c[nH]c3ncc(-c4ccc(C5(C#N)CC5)cc4)cc23)c1F` (centres unmarked) [Compound P-0227, N-[3-[5-[4-(1-cyanocyclopropyl)phenyl]-1H-pyrrolo[2,3-b]pyridine-3-carbonyl]-2-fluoro-phenyl]butane-2-sulfonamide], the IC50 in assay [1] was below 1 µM; against B-Raf V600E it was below 0.1 µM.
Turning to `CCC(C)S(=O)(=O)Nc1cccc(C(=O)c2c[nH]c3ncc(-c4cnc(C(C)C)nc4)cc23)c1F` (centres unmarked) [Compound P-0229, N-[2-fluoro-3-[5-(2-isopropylpyrimidin-5-yl)-1H-pyrrolo[2,3-b]pyridine-3-carbonyl]phenyl]butane-2-sulfonamide], the values for the IC50 (in assay [1]; at B-Raf V600E) were below 1 µM and below 0.1 µM, respectively.
The corresponding values for `CCC(C)S(=O)(=O)Nc1cccc(C(=O)c2c[nH]c3ncc(-c4ccc(N(C)C)nc4)cc23)c1F` (centres unmarked) [Compound P-0230, N-[3-[5-[6-(dimethylamino)-3-pyridyl]-1H-pyrrolo[2,3-b]pyridine-3-carbonyl]-2-fluoro-phenyl]butane-2-sulfonamide] are below 1 µM and below 0.1 µM.
Consider `CCC(C)S(=O)(=O)Nc1cccc(C(=O)c2c[nH]c3ncc(-c4cnc(C)nc4)cc23)c1F` (centres unmarked) [Compound P-0231, N-[2-fluoro-3-[5-(2-methylpyrimidin-5-yl)-1H-pyrrolo[2,3-b]pyridine-3-carbonyl]phenyl]butane-2-sulfonamide], for which the values for the IC50 (in assay [1]; at B-Raf V600E) were below 1 µM and below 0.1 µM, respectively.
